In PubChem BioAssay (NCI):
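Briefly, cells in 96-well plates were exposed to five compound concentrations for 48 h, and endpoints were estimated by linear interpolation. The concentration for 50% growth inhibition is given as GI50. TGI marks complete inhibition of growth.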

Legend:
Assay in all cases: growth of human tumour cells (NCI), 48 h
NCI-H23 lung = system: NCI-H23 lung
SNB-75 CNS = system: SNB-75 CNS
SNB-19 CNS = system: SNB-19 CNS
COLO 205 colon = system: COLO 205 colon
BT-549 breast = system: BT-549 breast
UO-31 renal = system: UO-31 renal
OVCAR-5 ovarian = system: OVCAR-5 ovarian
IGROV1 ovarian = system: IGROV1 ovarian
DU-145 prostate = system: DU-145 prostate
UACC-257 melanoma = system: UACC-257 melanoma
CAKI-1 renal = system: CAKI-1 renal
RXF 393 renal = system: RXF 393 renal
MDA-MB-435 = system: MDA-MB-435
HOP-62 NSCLC = system: HOP-62 NSCLC
NCI-H226 lung = system: NCI-H226 lung
SK-MEL-2 melanoma = system: SK-MEL-2 melanoma
786-0 renal = system: 786-0 renal
NCI/ADR-RES ovarian = system: NCI/ADR-RES ovarian
SN12C renal = system: SN12C renal
HS 578T breast = system: HS 578T breast
U251 CNS = system: U251 CNS
A549 NSCLC = system: A549 NSCLC
SF-539 CNS = system: SF-539 CNS
EKVX NSCLC = system: EKVX NSCLC
NCI-H460 lung = system: NCI-H460 lung
OVCAR-4 ovarian = system: OVCAR-4 ovarian
HOP-92 NSCLC = system: HOP-92 NSCLC
M14 melanoma = system: M14 melanoma
SF-295 CNS = system: SF-295 CNS
SK-MEL-5 melanoma = system: SK-MEL-5 melanoma
HCC-2998 colon = system: HCC-2998 colon
RPMI-8226 leukemia = system: RPMI-8226 leukemia
HCT-15 colon = system: HCT-15 colon
OVCAR-3 ovarian = system: OVCAR-3 ovarian
MOLT-4 leukemia = system: MOLT-4 leukemia
UACC-62 melanoma = system: UACC-62 melanoma
MALME-3M melanoma = system: MALME-3M melanoma
SK-MEL-28 melanoma = system: SK-MEL-28 melanoma
KM12 colon = system: KM12 colon
SW-620 colon = system: SW-620 colon
SF-268 CNS = system: SF-268 CNS
LOX IMVI melanoma = system: LOX IMVI melanoma
OVCAR-8 ovarian = system: OVCAR-8 ovarian
ACHN renal = system: ACHN renal
CCRF-CEM leukemia = system: CCRF-CEM leukemia
TK-10 renal = system: TK-10 renal
MDA-MB-231 breast = system: MDA-MB-231 breast
T-47D breast = system: T-47D breast
A498 renal = system: A498 renal
HCT-116 colon = system: HCT-116 colon
NCI-H522 lung = system: NCI-H522 lung
HT29 colon = system: HT29 colon
SK-OV-3 ovarian = system: SK-OV-3 ovarian
MCF7 breast = system: MCF7 breast
HL-60(TB) leukemia = system: HL-60(TB) leukemia
K-562 leukemia = system: K-562 leukemia
PC-3 prostate = system: PC-3 prostate

With O=c1/c(=C\c2ccc(F)cc2)sc2n1C(c1ccc(F)cc1)C1=C(N=2)c2ccc3ccccc3c2OCC1 (stereo not drawn) the GI50 (NCI-H23 lung) was > 100 µM, the TGI (NCI-H23 lung) was > 100 µM and the GI50 (SNB-75 CNS) was > 100 µM. For the same compound, the TGI (SNB-75 CNS) was > 100 µM, the GI50 (SNB-19 CNS) was > 100 µM and the TGI (SNB-19 CNS) was > 100 µM. For the same compound, the GI50 (COLO 205 colon) was > 100 µM, the TGI (COLO 205 colon) was > 100 µM and the GI50 (BT-549 breast) was > 64.5 µM. For the same compound, the TGI (BT-549 breast) was > 100 µM, the GI50 (UO-31 renal) was > 100 µM and the TGI (UO-31 renal) was > 100 µM. The GI50 (OVCAR-5 ovarian) was > 100 µM, the TGI (OVCAR-5 ovarian) was > 100 µM and the GI50 (IGROV1 ovarian) was > 100 µM. For the same compound, the TGI (IGROV1 ovarian) was > 100 µM, the GI50 (DU-145 prostate) was > 100 µM and the TGI (DU-145 prostate) was > 100 µM. The GI50 (UACC-257 melanoma) was > 100 µM, the TGI (UACC-257 melanoma) was > 100 µM and the TGI (CAKI-1 renal) was > 66.9 µM. For the same compound, the GI50 (RXF 393 renal) was > 100 µM, the TGI (RXF 393 renal) was > 100 µM and the GI50 (MDA-MB-435) was > 100 µM. The TGI (MDA-MB-435) was > 100 µM, the GI50 (HOP-62 NSCLC) was > 100 µM and the TGI (HOP-62 NSCLC) was > 100 µM. For the same compound, the GI50 (NCI-H226 lung) was > 100 µM, the TGI (NCI-H226 lung) was > 100 µM and the GI50 (SK-MEL-2 melanoma) was > 100 µM. For the same compound, the TGI (SK-MEL-2 melanoma) was > 100 µM, the GI50 (786-0 renal) was > 100 µM and the TGI (786-0 renal) was > 100 µM. For the same compound, the GI50 (NCI/ADR-RES ovarian) was > 100 µM, the TGI (NCI/ADR-RES ovarian) was > 100 µM and the GI50 (SN12C renal) was > 100 µM. The TGI (SN12C renal) was > 100 µM, the GI50 (HS 578T breast) was > 100 µM and the TGI (HS 578T breast) was > 100 µM. The GI50 (U251 CNS) was > 100 µM, the TGI (U251 CNS) was > 100 µM and the GI50 (A549 NSCLC) was > 100 µM. For the same compound, the TGI (A549 NSCLC) was > 100 µM, the GI50 (SF-539 CNS) was > 100 µM and the TGI (SF-539 CNS) was > 100 µM. The GI50 (EKVX NSCLC) was > 100 µM, the TGI (EKVX NSCLC) was > 100 µM and the GI50 (NCI-H460 lung) was 14.2 µM. The TGI (NCI-H460 lung) was > 100 µM, the GI50 (OVCAR-4 ovarian) was > 100 µM and the TGI (OVCAR-4 ovarian) was > 100 µM. For the same compound, the TGI (HOP-92 NSCLC) was > 100 µM, the GI50 (M14 melanoma) was > 100 µM and the TGI (M14 melanoma) was > 100 µM. For the same compound, the GI50 (SF-295 CNS) was > 100 µM, the TGI (SF-295 CNS) was > 100 µM and the GI50 (SK-MEL-5 melanoma) was > 100 µM. For the same compound, the TGI (SK-MEL-5 melanoma) was > 100 µM, the GI50 (HCC-2998 colon) was > 100 µM and the TGI (HCC-2998 colon) was > 100 µM. For the same compound, the GI50 (RPMI-8226 leukemia) was > 100 µM, the TGI (RPMI-8226 leukemia) was > 100 µM and the GI50 (HCT-15 colon) was 7.17 µM. The TGI (HCT-15 colon) was > 100 µM, the GI50 (OVCAR-3 ovarian) was > 100 µM and the TGI (OVCAR-3 ovarian) was > 100 µM. For the same compound, the GI50 (MOLT-4 leukemia) was > 100 µM, the TGI (MOLT-4 leukemia) was > 100 µM and the GI50 (UACC-62 melanoma) was > 100 µM. For the same compound, the TGI (UACC-62 melanoma) was > 100 µM, the GI50 (MALME-3M melanoma) was > 100 µM and the TGI (MALME-3M melanoma) was > 100 µM. The GI50 (SK-MEL-28 melanoma) was > 100 µM, the TGI (SK-MEL-28 melanoma) was > 100 µM and the GI50 (KM12 colon) was > 89.8 µM. The TGI (KM12 colon) was > 100 µM, the GI50 (SW-620 colon) was > 100 µM and the TGI (SW-620 colon) was > 100 µM. The GI50 (SF-268 CNS) was > 30.8 µM, the TGI (SF-268 CNS) was > 100 µM and the GI50 (LOX IMVI melanoma) was > 100 µM. For the same compound, the TGI (LOX IMVI melanoma) was > 100 µM, the GI50 (OVCAR-8 ovarian) was > 100 µM and the TGI (OVCAR-8 ovarian) was > 100 µM. The GI50 (ACHN renal) was > 100 µM, the TGI (ACHN renal) was > 100 µM and the GI50 (CCRF-CEM leukemia) was > 100 µM. The TGI (CCRF-CEM leukemia) was > 100 µM, the GI50 (TK-10 renal) was > 100 µM and the TGI (TK-10 renal) was > 100 µM. For the same compound, the GI50 (MDA-MB-231 breast) was > 100 µM, the TGI (MDA-MB-231 breast) was > 100 µM and the GI50 (T-47D breast) was > 100 µM. For the same compound, the TGI (T-47D breast) was > 100 µM, the GI50 (A498 renal) was > 100 µM and the TGI (A498 renal) was > 100 µM. The GI50 (HCT-116 colon) was > 100 µM, the TGI (HCT-116 colon) was > 100 µM and the GI50 (NCI-H522 lung) was > 100 µM. For the same compound, the TGI (NCI-H522 lung) was > 100 µM, the GI50 (HT29 colon) was > 100 µM and the TGI (HT29 colon) was > 100 µM. For the same compound, the GI50 (SK-OV-3 ovarian) was > 100 µM, the TGI (SK-OV-3 ovarian) was > 100 µM and the GI50 (MCF7 breast) was > 100 µM. For the same compound, the TGI (MCF7 breast) was > 100 µM, the GI50 (HL-60(TB) leukemia) was > 100 µM and the TGI (HL-60(TB) leukemia) was > 100 µM. The GI50 (K-562 leukemia) was > 29.5 µM, the TGI (K-562 leukemia) was > 100 µM and the GI50 (PC-3 prostate) was > 52.8 µM. The TGI (PC-3 prostate) was > 100 µM.
With COC(=O)C1=C(C(=O)OC)C2(C)C=CC1O2 (stereo not drawn) the TGI (NCI-H23 lung) was 32.4 µM, the TGI (SNB-75 CNS) was 66.2 µM and the TGI (SNB-19 CNS) was > 100 µM. The TGI (COLO 205 colon) was 32.6 µM, the TGI (BT-549 breast) was 46 µM and the TGI (UO-31 renal) was 17.6 µM. For the same compound, the TGI (OVCAR-5 ovarian) was 31.5 µM, the TGI (IGROV1 ovarian) was 37.5 µM and the TGI (DU-145 prostate) was 31.8 µM. For the same compound, the TGI (UACC-257 melanoma) was 29.4 µM, the TGI (RXF 393 renal) was 57.6 µM and the TGI (MDA-MB-435) was 33.2 µM. For the same compound, the TGI (HOP-62 NSCLC) was > 100 µM, the TGI (NCI-H226 lung) was 39.9 µM and the TGI (SK-MEL-2 melanoma) was 43.8 µM. It also gave a TGI (786-0 renal) of 14.4 µM, a TGI (NCI/ADR-RES ovarian) of 37.6 µM and a TGI (SN12C renal) of 31.3 µM. The TGI (HS 578T breast) was 72 µM, the TGI (U251 CNS) was 31.9 µM and the TGI (A549 NSCLC) was > 100 µM. The TGI (SF-539 CNS) was 33 µM, the TGI (EKVX NSCLC) was 41.3 µM and the TGI (NCI-H460 lung) was > 100 µM. It also gave a TGI (OVCAR-4 ovarian) of 27.2 µM, a TGI (HOP-92 NSCLC) of 24.4 µM and a TGI (M14 melanoma) of 32.5 µM. The TGI (SK-MEL-5 melanoma) was 32.8 µM, the TGI (HCC-2998 colon) was 29.8 µM and the TGI (RPMI-8226 leukemia) was 4.04 µM. For the same compound, the TGI (HCT-15 colon) was 29.7 µM, the TGI (OVCAR-3 ovarian) was 2.86 µM and the TGI (UACC-62 melanoma) was 31.9 µM. For the same compound, the TGI (MALME-3M melanoma) was 9.26 µM, the TGI (SK-MEL-28 melanoma) was 29.5 µM and the TGI (SW-620 colon) was 17.2 µM. The TGI (SF-268 CNS) was > 100 µM, the TGI (LOX IMVI melanoma) was 34.5 µM and the TGI (OVCAR-8 ovarian) was 31.7 µM. It also gave a TGI (ACHN renal) of 18.7 µM, a TGI (TK-10 renal) of 8.24 µM and a TGI (MDA-MB-231 breast) of 31 µM. It also gave a TGI (T-47D breast) of 13 µM, a TGI (A498 renal) of 54 µM and a TGI (HCT-116 colon) of 22.3 µM. For the same compound, the TGI (NCI-H522 lung) was 5.56 µM, the TGI (HT29 colon) was 28.5 µM and the TGI (SK-OV-3 ovarian) was > 100 µM. For the same compound, the TGI (MCF7 breast) was > 100 µM, the TGI (K-562 leukemia) was 19.4 µM and the TGI (PC-3 prostate) was 37.6 µM.
